Measurements: ChEMBL document CHEMBL5344402, “A multi-target directed ligands strategy for the treatment of Alzheimer's disease: Dimethyl fumarate plus Tranilast modified Dithiocarbate as AChE inhibitor and Nrf2 activator” (Eur J Med Chem, 2022)
Activity calls are given as the source filed them. The calls are words filed in the database; no cut-off is given here.

Tests used:
[1] = biological target: Cholinesterase (Equus caballus) (UniProt P81908); assay: Inhibition of equine serum BuChE using butyrylthiocholine iodide as substrate at 10 uM preincubated for 5 mins followed by substrate addition by DTNB reagent based Ellman's method relative to control; type: cell-free
Sequence of Cholinesterase (Equus caballus) (P81908 whole entry): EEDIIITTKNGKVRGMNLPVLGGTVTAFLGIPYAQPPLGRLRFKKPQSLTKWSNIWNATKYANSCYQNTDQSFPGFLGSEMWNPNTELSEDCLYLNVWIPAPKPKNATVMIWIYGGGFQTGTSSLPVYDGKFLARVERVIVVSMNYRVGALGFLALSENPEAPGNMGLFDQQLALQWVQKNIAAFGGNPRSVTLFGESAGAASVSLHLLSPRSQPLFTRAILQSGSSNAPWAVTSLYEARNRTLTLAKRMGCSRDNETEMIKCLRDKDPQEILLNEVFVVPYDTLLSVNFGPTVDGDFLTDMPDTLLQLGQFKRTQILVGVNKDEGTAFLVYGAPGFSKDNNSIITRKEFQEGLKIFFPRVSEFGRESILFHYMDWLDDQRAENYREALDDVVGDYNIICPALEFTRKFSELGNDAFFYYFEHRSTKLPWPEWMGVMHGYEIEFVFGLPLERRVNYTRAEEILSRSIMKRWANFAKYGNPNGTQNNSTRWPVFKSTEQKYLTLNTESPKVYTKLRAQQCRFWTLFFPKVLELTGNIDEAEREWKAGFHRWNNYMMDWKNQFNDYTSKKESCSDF

Acetylcholinesterase [2] = biological target: Acetylcholinesterase (Electrophorus electricus, UniProt O42275); assay: Inhibition of electric eel AChE using acetylthiocholine iodide as substrate preincubated for 5 mins followed by substrate addition by DTNB reagent based Ellman's method
Sequence of Acetylcholinesterase (Electrophorus electricus, UniProt O42275) (O42275 whole entry): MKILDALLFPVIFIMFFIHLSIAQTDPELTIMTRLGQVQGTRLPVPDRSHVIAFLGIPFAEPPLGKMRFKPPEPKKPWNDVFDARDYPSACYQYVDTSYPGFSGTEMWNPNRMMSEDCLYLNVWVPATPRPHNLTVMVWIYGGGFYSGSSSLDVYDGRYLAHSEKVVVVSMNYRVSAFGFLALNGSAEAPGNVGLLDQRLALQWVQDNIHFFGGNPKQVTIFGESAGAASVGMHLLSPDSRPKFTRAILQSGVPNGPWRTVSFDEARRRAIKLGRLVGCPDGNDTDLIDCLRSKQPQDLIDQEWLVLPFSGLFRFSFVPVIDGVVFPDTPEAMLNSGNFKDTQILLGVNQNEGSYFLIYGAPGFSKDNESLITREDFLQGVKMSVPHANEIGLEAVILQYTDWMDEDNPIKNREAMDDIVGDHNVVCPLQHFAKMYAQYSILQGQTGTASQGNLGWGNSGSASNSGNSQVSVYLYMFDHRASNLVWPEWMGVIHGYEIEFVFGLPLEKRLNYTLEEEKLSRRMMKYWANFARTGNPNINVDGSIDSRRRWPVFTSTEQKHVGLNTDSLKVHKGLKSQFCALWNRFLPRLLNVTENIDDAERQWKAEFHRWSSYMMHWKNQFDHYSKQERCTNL

[3] = biological target: Cholinesterase (Homo sapiens) (UniProt P06276); assay: Inhibition of human BuChE using butyrylthiocholine iodide as substrate at 10 uM preincubated for 5 mins followed by substrate addition by DTNB reagent based Ellman's method relative to control
Sequence of Cholinesterase (Homo sapiens) (P06276 whole entry): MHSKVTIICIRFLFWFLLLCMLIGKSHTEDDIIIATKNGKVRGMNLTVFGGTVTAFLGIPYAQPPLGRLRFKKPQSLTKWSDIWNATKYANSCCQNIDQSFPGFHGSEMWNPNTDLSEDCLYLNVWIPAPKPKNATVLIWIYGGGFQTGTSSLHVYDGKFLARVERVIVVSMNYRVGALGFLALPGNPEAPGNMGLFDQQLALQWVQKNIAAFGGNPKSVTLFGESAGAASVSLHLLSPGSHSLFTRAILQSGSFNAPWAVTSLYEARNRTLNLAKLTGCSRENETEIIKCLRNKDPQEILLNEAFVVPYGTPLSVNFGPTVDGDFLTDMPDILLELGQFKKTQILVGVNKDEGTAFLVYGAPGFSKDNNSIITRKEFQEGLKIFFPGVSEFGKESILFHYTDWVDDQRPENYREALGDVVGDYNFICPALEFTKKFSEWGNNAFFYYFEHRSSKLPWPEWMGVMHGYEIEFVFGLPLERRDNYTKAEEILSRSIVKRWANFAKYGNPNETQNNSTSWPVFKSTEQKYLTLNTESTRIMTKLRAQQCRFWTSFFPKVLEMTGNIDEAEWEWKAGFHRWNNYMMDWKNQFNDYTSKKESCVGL

in vitro = conditions: PAMPA
Acetylcholinesterase [4] = biological target: Acetylcholinesterase (Homo sapiens, UniProt P22303); assay: Inhibition of human AChE using acetylthiocholine iodide as substrate preincubated for 5 mins followed by substrate addition by DTNB reagent based Ellman's method
Sequence of Acetylcholinesterase (Homo sapiens, UniProt P22303) (P22303 whole entry): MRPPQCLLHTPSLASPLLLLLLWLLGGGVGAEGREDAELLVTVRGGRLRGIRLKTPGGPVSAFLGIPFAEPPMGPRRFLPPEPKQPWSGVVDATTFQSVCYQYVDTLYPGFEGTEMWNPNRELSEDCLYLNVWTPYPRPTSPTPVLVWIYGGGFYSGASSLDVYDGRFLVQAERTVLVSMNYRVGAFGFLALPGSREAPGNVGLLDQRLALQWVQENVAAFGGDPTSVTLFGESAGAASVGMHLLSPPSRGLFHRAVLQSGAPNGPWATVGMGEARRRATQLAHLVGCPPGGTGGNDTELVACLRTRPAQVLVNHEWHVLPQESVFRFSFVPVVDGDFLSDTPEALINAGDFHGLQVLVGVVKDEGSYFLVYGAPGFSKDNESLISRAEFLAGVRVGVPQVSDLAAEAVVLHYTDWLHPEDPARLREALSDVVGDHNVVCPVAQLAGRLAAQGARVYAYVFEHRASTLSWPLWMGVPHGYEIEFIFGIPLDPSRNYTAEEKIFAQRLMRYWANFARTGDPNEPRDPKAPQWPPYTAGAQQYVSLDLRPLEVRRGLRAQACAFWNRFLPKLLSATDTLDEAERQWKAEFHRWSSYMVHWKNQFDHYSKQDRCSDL

[5] = biological target: T1, Nuclear factor erythroid 2-related factor 2 (Mus musculus) (UniProt Q60795); assay: Activation of NRF2 in mouse BV-2 cells assessed as increase in GPX4 protein expression incubated for 8 hrs by Western blotting analysis; type: cell-based; conditions: filed as activator
T1 sequence (whole entry): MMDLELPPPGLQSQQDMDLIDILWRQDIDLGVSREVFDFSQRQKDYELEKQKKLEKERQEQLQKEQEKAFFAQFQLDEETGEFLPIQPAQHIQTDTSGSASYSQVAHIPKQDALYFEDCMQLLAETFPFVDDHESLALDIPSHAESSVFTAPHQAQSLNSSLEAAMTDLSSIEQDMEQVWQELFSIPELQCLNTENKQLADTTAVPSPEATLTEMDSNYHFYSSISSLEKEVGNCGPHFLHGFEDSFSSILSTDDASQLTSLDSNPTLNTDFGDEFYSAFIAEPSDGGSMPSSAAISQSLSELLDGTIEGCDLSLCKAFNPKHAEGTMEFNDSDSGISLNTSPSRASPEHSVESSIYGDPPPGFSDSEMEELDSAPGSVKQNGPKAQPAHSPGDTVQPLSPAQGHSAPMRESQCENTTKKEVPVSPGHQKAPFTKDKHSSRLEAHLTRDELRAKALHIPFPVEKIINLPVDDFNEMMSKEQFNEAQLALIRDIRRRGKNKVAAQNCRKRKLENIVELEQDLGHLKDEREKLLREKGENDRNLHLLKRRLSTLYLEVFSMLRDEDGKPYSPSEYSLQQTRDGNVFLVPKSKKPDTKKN

BV-2 [6] = assay: Activation of NRF2/ARE in mouse BV-2 cells assessed as upregulation of cytosolic NRF2 expression at 7 uM incubated for 10 hrs by Western blotting analysis; type: cell-based
Mus musculus [7] = assay: Antialzheimer activity in scopolamine-induced cognitive impairment Kunming mouse model assessed as increase in latency at po administration by step-down assay; type: functional, organism-based
[8] = Acute toxicity in Kunming mouse assessed as kidney pathological change at 625 to 2500 mg/kg,po administration for 14 days by Hematoxylin and eosin based staining analysis; type: organism-based; conditions: in vivo, 336 h, dose 625-2500 mg/kg, time 14 day
[9] = Acute toxicity in Kunming mouse assessed as heart pathological change at 625 to 2500 mg/kg,po administration for 14 days by Hematoxylin and eosin based staining analysis; type: organism-based; conditions: in vivo, 336 h, dose 625-2500 mg/kg, time 14 day
Mus musculus [10] = assay: Antialzheimer activity in scopolamine-induced cognitive impairment Kunming mouse model assessed as decrease in number of latency error at po administration by step-down assay; type: functional, organism-based
BV-2 [11] = assay: Activation of NRF2/ARE in mouse BV-2 cells assessed as upregulation of NRF2 expression incubated for 8 hrs by Western blotting analysis; type: cell-based; conditions: filed as activator
[12] = Acute toxicity in Kunming mouse assessed as brain pathological change at 625 to 2500 mg/kg,po administration for 14 days by Hematoxylin and eosin based staining analysis; type: organism-based; conditions: in vivo, 336 h, dose 625-2500 mg/kg, time 14 day
BV-2 [13] = assay: Anti-neuroinflammatory activity in mouse BV-2 cells assessed as reduction in LPS-induced iNOS expression at 1 to 7 uM incubated for 6 hrs followed by LPS addition measured after 24 hrs by Western blotting analysis; type: functional, cell-based; conditions: dose 1-7 µM, time 30.0 hrs
Mus musculus [14] = assay: Antialzheimer activity in scopolamine-induced cognitive impairment Kunming mouse model assessed as increase in latency at 15 mg/kg,po administration by step-down assay; type: functional, organism-based
[15] = biological target: T1, Nuclear factor erythroid 2-related factor 2 (Mus musculus); assay: Activation of NRF2 in mouse BV-2 cells assessed as increase in HO-1 protein expression at 7 uM by Western blotting analysis; type: cell-based; conditions: filed as activator, TDE = time-dependent effect
[16] = biological target: T1, Nuclear factor erythroid 2-related factor 2 (Mus musculus); assay: Activation of NRF2 in mouse BV-2 cells assessed as increase in NQO1 protein expression incubated for 8 hrs by Western blotting analysis; type: cell-based; conditions: filed as activator
BV-2 [17] = assay: Activation of NRF2/ARE in mouse BV-2 cells assessed as upregulation of nuclear NRF2 expression at 7 uM incubated for 4 hrs by Western blotting analysis; type: cell-based; conditions: filed as activator
[18] = biological target: T1, Nuclear factor erythroid 2-related factor 2 (Mus musculus); assay: Activation of NRF2 in mouse BV-2 cells assessed as increase in GPX4 protein expression at 7 uM incubated for 3 to 9 hrs by Western blotting analysis; type: cell-based; conditions: filed as activator, time 3-9 hrs
[19] = Acute toxicity in Kunming mouse assessed as behavioral abnormalities at 625 to 2500 mg/kg,po administration for 4 hrs; type: organism-based; conditions: in vivo, dose 625-2500 mg/kg
[20] = Acute toxicity in Kunming mouse assessed as change in body weight at 625 to 2500 mg/kg,po administration for 14 days; type: organism-based; conditions: in vivo, 336 h, dose 625-2500 mg/kg, time 14 day
BV-2 [21] = assay: Anti-neuroinflammatory activity in mouse BV-2 cells assessed as reduction in LPS-induced TNF-alpha production incubated for 6 hrs followed by LPS addition measured after 24 hrs by ELISA; type: functional, cell-based; conditions: time 30.0 hrs
[22] = biological target: T1, Nuclear factor erythroid 2-related factor 2 (Mus musculus); assay: Activation of NRF2 in mouse BV-2 cells assessed as increase in NQO1 protein expression at 7 uM by Western blotting analysis; type: cell-based; conditions: filed as activator, TDE = time-dependent effect
BV-2 [23] = assay: Cytotoxicity against mouse BV-2 cells upto 10 uM incubated for 24 hrs by CCK-8 assay; type: toxicity, cell-based; conditions: bv-2, 24 h
BV-2 [24] = assay: Anti-neuroinflammatory activity in mouse BV-2 cells assessed as reduction in LPS-induced COX-2 expression at 1 to 7 uM incubated for 6 hrs followed by LPS addition measured after 24 hrs by Western blotting analysis; type: functional, cell-based; conditions: dose 1-7 µM, time 30.0 hrs
Mus musculus [25] = assay: Antialzheimer activity in scopolamine-induced cognitive impairment Kunming mouse model assessed as increase in latency at 7.5 mg/kg,po administration by step-down assay; type: functional, organism-based
BV-2 [26] = assay: Anti-neuroinflammatory activity in mouse BV-2 cells assessed as reduction in LPS-induced NO production incubated for 6 hrs followed by LPS addition measured after 24 hrs by Griess reagent based assay; type: functional, cell-based; conditions: time 30.0 hrs
[27] = biological target: T1, Nuclear factor erythroid 2-related factor 2 (Mus musculus); assay: Activation of NRF2 in mouse BV-2 cells assessed as increase in HO-1 protein expression incubated for 8 hrs by Western blotting analysis; type: cell-based; conditions: filed as activator
[28] = Acute toxicity in Kunming mouse assessed as lung pathological change at 625 to 2500 mg/kg,po administration for 14 days by Hematoxylin and eosin based staining analysis; type: organism-based; conditions: in vivo, 336 h, dose 625-2500 mg/kg, time 14 day
[29] = Acute toxicity in Kunming mouse assessed as liver pathological change at 625 to 2500 mg/kg,po administration for 14 days by Hematoxylin and eosin based staining analysis; type: organism-based; conditions: in vivo, 336 h, dose 625-2500 mg/kg, time 14 day
[30] = Stability of the compound in serum (unknown origin) assessed as drug degradation incubated for 8 hrs by HPLC analysis; type: ADME, cell-free
BV-2 [31] = assay: Activation of NRF2/ARE in mouse BV-2 cells assessed as upregulation of NRF2 expression at 7 uM by Western blotting analysis; type: cell-based; conditions: filed as activator, TDE = time-dependent effect
BV-2 [32] = assay: Cytoprotective activity against H2O2-induced toxicity in mouse BV-2 cells assessed as decrease in ROS production incubated for 6 hrs by DCFH-DA staining based inverted fluorescence microscopic analysis; type: functional, cell-based
BV-2 [33] = assay: Cytoprotective activity against H2O2-induced toxicity in mouse BV-2 cells assessed as increase in cell viability incubated for 6 hrs by CCK-8 assay; type: functional, cell-based
[34] = biological target: T1, Nuclear factor erythroid 2-related factor 2 (Mus musculus); assay: Activation of NRF2 in mouse BV-2 cells assessed as increase in HO-1 protein expression at 7 uM incubated for 3 to 9 hrs by Western blotting analysis; type: cell-based; conditions: filed as activator, time 3-9 hrs
[35] = Drug degradation in serum (unknown origin) incubated for 12 hrs by HPLC analysis; type: ADME, cell-free; conditions: read-out: Drug degradation
BV-2 [36] = assay: Anti-neuroinflammatory activity in mouse BV-2 cells assessed as reduction in LPS-induced IL-6 production incubated for 6 hrs followed by LPS addition measured after 24 hrs by ELISA; type: functional, cell-based; conditions: time 30.0 hrs
[37] = biological target: T1, Nuclear factor erythroid 2-related factor 2 (Mus musculus); assay: Activation of NRF2 in mouse BV-2 cells assessed as increase in GPX4 protein expression at 7 uM by Western blotting analysis; type: cell-based; conditions: filed as activator, TDE = time-dependent effect
[38] = biological target: T1, Nuclear factor erythroid 2-related factor 2 (Mus musculus); assay: Activation of NRF2 in mouse BV-2 cells assessed as increase in NQO1 protein expression at 7 uM incubated for 3 to 9 hrs by Western blotting analysis; type: cell-based; conditions: filed as activator, time 3-9 hrs

## COC(=O)/C=C/C(=O)Nc1cccc(OCCCCSC(=S)N(C)C)c1
[1]
  inhibition: 7.25%
Acetylcholinesterase [2]
  IC50: 56.5 µM

## COC(=O)/C=C/C(=O)Nc1cccc(OCCCCSC(=S)N2CCC(C)CC2)c1
[1]
  inhibition: 8.48%
Acetylcholinesterase [2]
  IC50: 19.7 µM

## COC(=O)/C=C/C(=O)Nc1ccc(OCCCCSC(=S)N2CCCCC2C)cc1 (stereo unspecified)
[3]
  inhibition: < 5%
[1]
  inhibition: 18%
In vitro
  Papp at 18 h: 12.7 ×10⁻⁶ cm/s
Acetylcholinesterase [4]
  IC50: 0.38 µM
Acetylcholinesterase [2]
  IC50: 0.49 µM

## COC(=O)/C=C/C(=O)Nc1cccc(OCCCCSC(=S)N2CCCCC2C)c1 (stereo unspecified)
[5]
  Activity: Dose-Dependent Effect
BV-2 [6]
  Activity: inactive
Mus musculus [7]
  Activity: Dose-Dependent Effect
[8]
  Activity: Non-Toxic
[9]
  Activity: Non-Toxic
Mus musculus [10]
  Activity: Dose-Dependent Effect
BV-2 [11]
  Activity: Dose-Dependent Effect
[12]
  Activity: Non-Toxic
BV-2 [13]
  Activity: Active
Mus musculus [14]
  Activity: Active
[3]
  inhibition: < 5%
[15]
  Activity: Tde
[16]
  Activity: Dose-Dependent Effect
[1]
  inhibition: 7.5%
BV-2 [17]
  Activity: Active
[18]
  Activity: Active
[19]
  Activity: Non-Toxic
[20]
  Activity: Non-Toxic
BV-2 [21]
  Activity: Dose-Dependent Effect
[22]
  Activity: Tde
BV-2 [23]
  Activity: Non-Toxic
BV-2 [24]
  Activity: Active
Mus musculus [25]
  Activity: inactive
BV-2 [26]
  Activity: Dose-Dependent Effect
[27]
  Activity: Dose-Dependent Effect
[28]
  Activity: Non-Toxic
In vitro
  Papp at 18 h: 17.9 ×10⁻⁶ cm/s
[29]
  Activity: Non-Toxic
[30]
  Stability: Unstable
BV-2 [31]
  Activity: Tde
BV-2 [32]
  Activity: Dose-Dependent Effect
BV-2 [33]
  Activity: Dose-Dependent Effect
[34]
  Activity: Active
[35]
  metabolised at 12 h: 50%
Acetylcholinesterase [4]
  IC50: 0.053 µM
BV-2 [36]
  Activity: Dose-Dependent Effect
Acetylcholinesterase [2]
  IC50: 0.088 µM
[37]
  Activity: Tde
[38]
  Activity: Active

## COC(=O)/C=C/C(=O)Nc1cccc(OCCCCCCSC(=S)N2CCCCC2)c1
[1]
  inhibition: < 5%
Acetylcholinesterase [2]
  IC50: 28.7 µM

## CCN(CC)C(=S)SCCCCOc1cccc(NC(=O)/C=C/C(=O)OC)c1
[1]
  inhibition: > 5%
Acetylcholinesterase [2]
  IC50: 11.3 µM

## COC(=O)/C=C/C(=O)Nc1cccc(OCCCCCSC(=S)N2CCCCC2)c1
[1]
  inhibition: < 5%
Acetylcholinesterase [2]
  IC50: 26.7 µM

## COC(=O)/C=C/C(=O)Nc1cccc(OCCCCSC(=S)N2CCOCC2)c1
[1]
  inhibition: 6.88%
Acetylcholinesterase [2]
  IC50: 74.2 µM
